Source: patent US11571426B2, “Compositions for preventing or treating lupus” (CHONG KUN DANG PHARMACEUTICAL CORP., priority 2017, dated 2023)

Tested on: NZB/W F1 female mice
Experiment: IgG and C3 depositions in glomerulus (fluorescence immunostaining)
Assay type: in vivo, mouse
Protocol: 80 NZB/W F1 female mice (four weeks old) were purchased from Jackson Laboratory and maintained in an SPF breeding room with five mice per cage. Their weight and urine protein were measured at 24 weeks after birth (right before administration), and then all the animals except those having too much urine protein were divided into groups as shown in a table 2 below such that the urine protein and weight might be evenly distributed among the groups.
Then, the mice were administered as described in the table 2 once a day for about 19 weeks from 24 weeks after birth to 42 weeks after birth.
To identify a therapeutic effect of the inventive pharmaceutical composition on kidney in the SLE disease model, a degree of IgG and C3 depositions in glomerulus was measured.
With regard to a remaining half of the left kidney collected during the autopsy performed in Example 9, a frozen tissue block was prepared for a frozen section by means of an OCT compound, and then IgG and C3 fluorescence immunostaining was performed by means of a method known in the technical field to which the present invention pertains.
Specifically, the frozen tissue was sectioned in a thickness of 4 μm, then fixed in cold acetone for five minutes, and then washed in phosphate buffered saline (PBS) twice for five minutes. To get rid of a non-specific reaction, a resulting tissue was blocked by means of the PBS solution with the addition of 1% bovine serum albumin and 0.05% tween-20 for 30 minutes, and then reacted at room temperature for one hour by means of FITC-conjugated goat anti-mouse IgG antibodies (1:200, AP308F, Merck Millipore) or FITC-conjugated goat anti-mouse C3 antibodies (1:100, Cappel 55500, MP Bio). After that, the resulting tissue was washed with the PBS for five minutes three times, then covered with a cover glass by means of a mounting medium including DAPI, and then observed by means of a confocal laser scanning microscopy (LSM 700, ZEISS).

## O=C(NO)c1ccc(CN(C(=O)N2CCOCC2)c2cccc(C(F)(F)F)c2)cc1 [Compound 374, N-(4-(hydroxycarbamoyl)benzyl)-N-(3-(trifluoromethyl)phenyl)morpholine-4-carboxamide]
50 mg/kg dosed group
  level of C3 depositions in kidney: remarkably decreased
  level of IgG depositions in kidney: remarkably decreased
Experimental groups
  level of C3 depositions in kidney: decreased
  level of IgG depositions in kidney: decreased
